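Cells were grown in 96-well plates and exposed to each compound for 48 hours at five concentrations; endpoints were interpolated linearly between bracketing concentrations, or set to the highest concentration if not reached. GI50 = concentration required for 50% inhibition of growth. TGI marks complete inhibition of growth.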
Tests used:
Experiment in all cases: NCI tumour cell line growth inhibition, 48 h
DLD-1 colon = tested on: DLD-1 colon
KM20L2 colon = tested on: KM20L2 colon
M19-MEL melanoma = tested on: M19-MEL melanoma
RXF-631 renal = tested on: RXF-631 renal
SNB-78 CNS = tested on: SNB-78 CNS
XF 498 CNS = tested on: XF 498 CNS
P388 leukemia = tested on: P388 leukemia
P388/ADR leukemia = tested on: P388/ADR leukemia
SN12K1 renal = tested on: SN12K1 renal

SMILES | TGI (DLD-1 colon) | TGI (KM20L2 colon) | TGI (M19-MEL melanoma) | TGI (RXF-631 renal) | TGI (SNB-78 CNS) | TGI (XF 498 CNS) | GI50 (P388 leukemia) | TGI (P388 leukemia) | TGI (P388/ADR leukemia) | TGI (SN12K1 renal)
Cc1oc2c(C)c3oc(=O)cc(C)c3cc2c1CN | > 100 µM | > 100 µM | > 100 µM | 90.4 µM | > 100 µM | 73.8 µM | – | – | – | –
NC(=S)N/N=C(\C(=O)Nc1ccc(Cl)c(Cl)c1)C1=NN(c2ccccc2)C(c2cccc([N+](=O)[O-])c2)CC1=O (configuration not stated) | 47.5 µM | 46.8 µM | 50.5 µM | > 100 µM | > 100 µM | > 100 µM | – | – | – | –
COc1cc(C(CC(OC)OC)=C(C#N)C#N)cc(OC)c1OC | 13.7 µM | 69.4 µM | 33.4 µM | – | > 100 µM | – | – | – | – | –
COc1ccc(N2C(=O)C3c4[nH]c5ccccc5c4C4CCC(C(C)(C)C)CC4C3C2=O)cc1OC (configuration not stated) | 39.9 µM | > 100 µM | > 100 µM | – | 56.4 µM | 34.7 µM | – | – | – | –
C/C(=C/c1c(C)[nH]c(=O)[nH]c1=O)C(=O)O | > 1380 µM | > 1370 µM | > 1380 µM | – | > 1380 µM | > 1370 µM | > 1370 µM | > 1370 µM | 1370 µM | > 1380 µM
Cc1ccc(Nc2ccc(Nc3ccc(C)cc3S(=O)(=O)O)c3c2C(=O)c2ccccc2C3=O)c(S(=O)(=O)O)c1 | > 100 µM | > 100 µM | – | > 100 µM | > 100 µM | – | – | – | – | –
CCCN(CCC)c1c([N+](=O)[O-])cc(C(=O)N(C)C)cc1[N+](=O)[O-] | > 100 µM | – | > 100 µM | – | > 100 µM | > 100 µM | – | – | – | –
COC(=O)c1ccccc1N=Cc1ccc(N(CCC#N)S(=O)(=O)c2ccccc2)cc1 | > 100 µM | > 100 µM | > 100 µM | > 100 µM | > 100 µM | > 100 µM | – | – | – | –
Oc1ccccc1C=Nc1ccccc1N=Cc1ccccc1O | – | > 100 µM | > 100 µM | – | – | > 100 µM | – | – | – | –
CC1(CO)C(=O)OC12CCCCC2 (configuration not stated) | > 100 µM | – | > 100 µM | > 100 µM | > 100 µM | > 100 µM | – | – | – | –
CCOC(=O)CN(Cc1ccccc1)Cc1c(C(=O)c2ccccc2)c2ccccc2n1C(=O)c1ccccc1 | > 100 µM | > 100 µM | > 100 µM | – | > 100 µM | > 100 µM | – | – | – | –

Source: PubChem BioAssay (NCI)
